Reference: US20250108036A1, “COMPOSITIONS FOR REMOVING SENESCENT CELLS AND USES THEREOF” (LIFECEUTIX CO., LTD., priority 2021, published 2025)
Read-outs that look alike come from different tables or passages of the source.

How the values were obtained:
HMGN1 = HMGN1 ELISA in culture medium of foreskin cells (Examples 10, 11; Tables 62, 63, 64); format: cell-based, human; settings: for HMGN1 (pg/ml): senescent foreskin cells
IL6, CXCL1, CXCL10, IL1β = assay: SASP mRNA qRT-PCR in doxorubicin-aged mice (Example 8-6); format: in vivo, C57BL6J mice; settings: doxorubicin-aged mice, LX-112 70 mg/kg oral daily 21 days; DOX without LX = 100%
Description: (§1) After adapting 8-week-old male C57BL6J mice (purchased from KRIBB Laboratory Animal Resource Center) to the experimental environment for 1 week, doxorubicin, an anticancer drug, was administered intraperitoneally at a concentration of 10 mg/kg, and mice that were induced to age for more than 10 days were assigned to an experimental group and a control group. LX-112 was mixed with 0.5% CMC-Na solution (purchased from Sigma) and administered orally at a concentration of 70 mg/kg daily for 21 days. The control group was administered only the solution in the same volume. After drug administration was completed, the method described in each Example below was performed.
Using cDNA synthesized in the same manner as Example 7-6, qRT-PCR was performed and analyzed for aging-related inflammation and fibrosis secretory factors (SASP) such as IL6, CXCL1, CXCL10, and IL1β. […] Table 45 calculates the mRNA amount of each factor after aging was induced by treatment with the anticancer drug as 100% and compared it with the mRNA amount of each factor after treatment with LX-112.

[1] = test system: foreskin cells in which senescence was not induced; assay: CellTiter-Glo growth of foreskin cells in which senescence was not induced (Tables 5, 12); settings: 3 days
Description: (§2) After 3 days, cell viability was measured using CellTiter-Glo Luminescent Cell Viability Assay (Promega) or light microscopy.

senescent foreskin cells = assay: survival of senescent foreskin cells treated with medium supernatant (secreted fluid) of compound-killed cells (Example 13, Tables 68, 69); format: cell-based, human; settings: for Survival (%): supernatant-treated cells: senescent cells, after 3 days
Description: as §2
During this additional culture, by checking with an optical microscope, etc., the medium supernatants containing secreted fluid from normally proliferating and senescent cells in which cell death was induced were obtained. The obtained medium supernatant was replaced with the medium of normally proliferating and senescent cells, respectively, and cell survival rate was measured after 3 days.

[2] = test system: foreskin cells, replicative senescence (REP); assay: CellTiter-Glo cell viability of replicative senescent foreskin cells (Example 3-2); format: cell-based, human; settings: 3 days
[3] = fatigue/weakness tests and body weight in doxorubicin-aged mice (Example 8-7); format: in vivo, C57BL6J mice
Description: as §1
In the same way as Example 7-7, in order to analyze fatigue and weakness that occur as a side effect due to treatment with anticancer drugs in mice, activity evaluation (open field test), endurance evaluation (wire hanging test), and muscle strength and grip strength test (grip strength test) were performed. […] In Table 47, the amount of each evaluation after aging was induced by treatment with the anticancer drug was calculated as 100% and compared it with the amount of each evaluation after treatment with LX-112.

HMGB1 = HMGB1 ELISA in culture medium of senescent foreskin cells (Example 10, Table 62); format: cell-based, human
Description: After 6 hours, the amounts of HMGB1 and HMGN1 secreted into the cell culture medium were measured using an enzyme-linked immunosorbent assay (ELISA Kit, purchased from AssayGenie).

[4] = skin aging (dermal thickness, collagen mRNA) in naturally aged mice (Example 7-9); format: in vivo, C57BL6J mice
Description: After 22-month-old female C57BL6J mice (purchased from KRIBB Laboratory Animal Resource Center) were adapted to the experimental environment for one week, the aged mice were randomized into an experimental group and a control group. 8-week-old mice that were not aged were used as controls. LX-112 was mixed with 0.5% CMC-Na solution (purchased from Sigma) and administered orally at a concentration of 70 mg/kg daily for 21 days. The control group was administered only the solution in the same volume. After drug administration was completed, the method described in each Example below was performed.
Frozen sections of skin tissue were stained with H/E (Hematoxylin/Eosin), and the thickness of the dermis was observed under an optical microscope. Additionally, the mRNA amount of collagen (COL1A1) was measured by qRT-PCR as described in Example 7-2.

[5] = test system: foreskin cells in which senescence was induced by doxorubicin; assay: CellTiter-Glo cell viability of doxorubicin-induced senescent foreskin cells (Examples 1-2, 10, 11, 13; Tables 4, 63, 65); format: cell-based, human; settings: for viability at 1.1 µM / viability at 10 µM: Homo sapiens, 72 h, read-out: Survival (%); for viability at 10 µM: LX-112 10 μM
Description: as §2

SAOS-2 = assay: senescent SAOS-2 tumor size in mice (Example 2-3); format: in vivo, BALB/c nude mice; settings: doxorubicin 10 mg/kg i.p.; after 10 days LX-112 100 mg/kg oral daily 21 days or repeated doxorubicin
Description: After 7-week-old male BALB/c nude mice (purchased from KRIBB Laboratory Animal Resource Center) were adapted to the experimental environment for one week, the mice were randomized into an experimental group and a control group. SAOS-2 (10^6 cells), a human osteosarcoma cancer cell line cultured in the same manner as Example 2-1, was mixed with PBS (purchased from Welgene) and then anesthetized using 2% isoflurane (purchased from Sigma). It was administered subcutaneously to mice. When the size of the tumor reached about […], doxorubicin was mixed at a concentration of 10 mg/kg in a 1:1 solution of distilled water and PBS (pH 7.2) and administered intraperitoneally to induce tumor aging. After 10 days, LX-112 mixed with 0.5% CMC-Na solution (purchased from Sigma) at a concentration of 100 mg/kg was orally administered daily for 21 days, and the size of the tumor was measured. The control group was repeatedly administered a solution mixed with doxorubicin, and then the size of the tumor was measured.

[6] = test system: senescent cancer (A549) cells; assay: survival of senescent A549 cancer cells treated with medium supernatant of compound-killed cancer cells (Example 14, Table 70); format: cell-based, human
Description: In the same way as Examples 12 and 13, senescence of cancer (A549) cells was induced by treatment with doxorubicin or the control group (DMSO), and the cells were cultured. […] In the same manner as in Example 13, the medium supernatants comprising secreted fluid from normally proliferating and senescent cancer cells was obtained. Normally proliferating and senescent-induced cancer cells were treated with the medium supernatants.
Furthermore, other test compounds were used in the same manner in Example 12 above at high concentrations of 30 μM, 90 μM, and 270 μM, respectively, and the cultured medium supernatant comprising secreted fluid from aged cancer cells that were killed were obtained. As a result of measuring the degree of death of aged cancer cells, it was confirmed that aged cancer cells can be effectively removed, as shown in Example 12 and Table 65.

[7] = ABT-263 1 μM or LX-112 10 μM, 6 hours

Structure (SMILES): O=c1c2ccccc2[se]n1CCn1[se]c2ccccc2c1=O [LX-112, 1,2-[bis(1,2-benzisoselenazolone-3(2H)-ketone)]ethane]
- HMGN1 (pg/ml) (HMGN1; 10 μM, culture medium after 6 hours): 262.45 (±23.4) pg/ml
- HMGN1 secreted in the culture medium from dying senescent cells (HMGN1; [7]): greatly increased
- HMGN1 (pg/ml) (HMGN1; LX-112 1.1 μM): 129.7(±9.3) pg/ml
- HMGN1 (pg/ml) (HMGN1; LX-112 10 μM): 262.45 (±23.4) pg/ml
- mRNA (%) CXCL1, Liver (IL6, CXCL1, CXCL10, IL1β): 68 (±21.1) %
- mRNA (%) CXCL1, eWAT (IL6, CXCL1, CXCL10, IL1β): 94.8 (±1.2)^ %
- mRNA (%) CXCL10, Liver (IL6, CXCL1, CXCL10, IL1β): 84 (±11.5) %
- mRNA (%) CXCL10, eWAT (IL6, CXCL1, CXCL10, IL1β): 74 (±11) %
- mRNA (%) IL1β, Liver (IL6, CXCL1, CXCL10, IL1β): 42 (±35.2) %
- mRNA (%) IL1β, eWAT (IL6, CXCL1, CXCL10, IL1β): 38 (±37) %
- mRNA (%) IL6, Liver (IL6, CXCL1, CXCL10, IL1β): 42 (±23.5) %
- mRNA (%) IL6, eWAT (IL6, CXCL1, CXCL10, IL1β): 48.6 (±12.5) %
- Growth (%) ([1]; Table 5, LX-112 1.1 μM, N0 (cell number before treatment) = 100%): 201 (±8) %
- Growth (%) ([1]; Table 5, LX-112 10 μM, N0 = 100%): 123 (±8) %
- Growth (%) ([1]; Table 12, LX-112 1.1 μM, N0 = 100%): 206 (±15) %
- Growth (%) ([1]; Table 12, LX-112 10 μM, N0 = 100%): 122.7 (±16) %
- death of senescent cells by medium supernatant (secreted fluid) of cells killed by the compound (senescent foreskin cells; supernatant from normally proliferating or senescent cells, survival after 3 days): selectively induced the death of senescent cells
- Survival (%) ([2]; LX-112 1.1 μM): 59 (±6) %
- Survival (%) ([2]; LX-112 10 μM): 1 (±0.9) %
- Open Field Test Time in Center (%) ([3]; Table 47, doxorubicin-aged mice, LX-112 70 mg/kg oral daily 21 days, DOX without LX = 100): 129 (±15) %
- Mean Body Weight (g) ([3]; mice, doxorubicin 10 mg/kg i.p. without or with LX-112 70 mg/kg oral daily 21 days): 22.8 (±3.1) g
- HMGB1 (pg/ml) (HMGB1; 10 μM, culture medium after 6 hours, senescent foreskin cells): 454.9 (±22.4) pg/ml
- HMGB1 secreted in the culture medium from dying senescent cells (HMGB1; [7]): little change
- Collagen mRNA (Fold) ([4]; COL1A1, skin, LX-112, aged untreated = 1): 2.3 (±0.4) Fold
- Dermal Thickness (μm) ([4]; LX-112 70 mg/kg oral daily 21 days): 265 (±17.2) μm
- viability at 1.1 µM ([5]; LX-112 1.1 μM, 3 days): 67.2%
- viability at 1.1 µM ([5]; LX-112 1.1 μM, senescent foreskin cells): 67.2%
- viability at 10 µM ([5]; 3 days): 1%
- viability at 10 µM ([5]; senescent foreskin cells): 1%
- Tumor Diameter (mm) (SAOS-2): 6.2 (±4.8) mm

Structure (SMILES): COC(=O)c1ccc([C@H]2c3[nH]c4ccccc4c3C[C@H](C(=O)OC)N2C(=O)CCl)cc1 [LX-405]
- activity at 30 µM (HMGN1; Homo sapiens, 30 μM test compound, doxorubicin-treated foreskin cells, DMSO = 100, read-out: HMGN1): 285%
- cell death, normally proliferating cells ([1]; 30 μM): induced the death of most cells
- Survival (%) (senescent foreskin cells; supernatant from compound-treated medium without cells (No Cells)): 102.8 (±4.6) %
- Survival (%) (senescent foreskin cells; supernatant from death-induced proliferating foreskin cells (compound 30 μM)): 41.3 (±3.6) %
- Survival (%) (senescent foreskin cells; supernatant from death-induced senescent foreskin cells (compound 30 μM)): 52.7 (±0.1) %
- cell death, senescent cells ([5]; 30 μM, 3 days): induced the death of most cells
- viability at 1.1 µM ([5]; 1.1 μM test compound, doxorubicin-induced senescent foreskin cells, CellTiter-Glo, 0 μM = 100): 4.9%
- Survival (%) ([6]; supernatant from No Cells): 98.2 (±2.8) %
- Survival (%) ([6]; supernatant from death-induced proliferating cells (LX-405 30 μM)): 78.8 (±7.7) %
- Survival (%) ([6]; supernatant from death-induced senescent cells (LX-405 30 μM)): 72.5 (±5.7) %
